Measured values taken from PMC8658022, “Towards Property Profiling: SYNTHESIS and SAR Probing of New Tetracyclic Diazaphenothiazine Analogues” (International Journal of Molecular Sciences, 2021).
≈ marks a conversion by molar mass, not a printed value.

Columns and labels:
[1] = tested on: SNB-19 (human glioblastoma); assay: WST-1 cell proliferation assay, SNB-19; type: cell-based; conditions: mean ± std
Protocol: (§1) Compounds were evaluated for their antiproliferative activity using […] cultured cell lines: A549 (human lung carcinoma, ATCC, Manassas, VA, USA), SNB-19 (human glioblastoma, DSMZ, German Collection of Microorganisms and Cell Cultures), T-47D (human breast cancer, ATCC, Manassas, VA, USA) and NHDF (normal human dermal fibroblasts, ATCC, Manassas, VA, USA). The cultured cells were kept at 37 °C and 5% CO2. The cells were seeded (1 × 10^4 cells/well/100 μL DMEM supplemented with 10% FCS and streptomycin and penicillin) using 96-well plates (Corning). Cells were counted in a hemocytometer (Burker chamber) using a phase contrast Olympus IX50 microscope equipped with Sony SSC-DC58 AP camera and Olympus DP10 digital camera.
(§2) The antiproliferative effect of the compounds exerted on cancer and normal cells was determined using the Cell Proliferation Reagent WST-1 assay (Roche Molecular Biochemicals Mannheim, Germany). This assay is based on a colorimetric method using the enzymatic ability of viable cells to cause the bright red-colored stable tetrazolium monosodium salt [2-(4-iodophenyl)-3-(4-nitrophenyl)-5-(2,4-disulfophenyl)–2H-tetra-zolium] to transform into the dark red-colored soluble formazan. […] An increase in the amount of formazan dye formed correlated with the number of metabolically active cells in the culture. The formazan dye produced by metabolically active cells was quantified by absorbance reading at appropriate wavelengths. The examined cells were exposed to the tested compounds (1 mg/mL DMSO stock) for 72 h at various concentrations (0.1 μg/mL–100 μg/mL). The control was performed in order to eliminate the DMSO effect at the concentration used. Cell cultures were incubated with WST-1 (10 μL) for 1 h. The absorbance of the samples was measured against a background control at 450 nm using a microplate reader with a reference wavelength at 600 nm. The obtained results are expressed as the means of at least two independent experiments performed in triplicate. The antiproliferative activity of the tested compounds were compared to cisplatinum. The values of IC50 (a concentration of a compound that is required for 50% inhibition) were calculated from the dose-response relationship with respect to control.

[2] = tested on: T47D (human breast cancer); assay: WST-1 cell proliferation assay, T47D; type: cell-based; conditions: 72 h exposure, mean ± std
Protocol: as §1, §2

[3] = tested on: A549 (human lung carcinoma); assay: WST-1 cell proliferation assay, A549; type: cell-based; conditions: mean ± std
Protocol: as §1, §2

[4] = tested on: methicillin-resistant S. aureus 63718; assay: broth dilution micro-method MIC, MRSA 63718; type: cell-based; conditions: Staphylococcus aureus, clinical isolate, 24 h, 37 °C
Protocol: (§3) The synthesized compounds were evaluated for in vitro antibacterial activity against representatives of multidrug-resistant bacteria and clinical isolates of methicillin-resistant Staphylococcus aureus (MRSA) 63718, SA 630, and SA 3202 that were obtained from the National Institute of Public Health (Prague, Czech Republic). S. aureus ATCC 29213 was used as a reference and quality control strain. Ampicillin (Sigma, St. Louis, MO, USA) was employed as the standard. Prior to testing, each strain was passaged onto nutrient agar (Oxoid, Basingstoke, UK) with 5% of bovine blood, and bacterial inocula were prepared by suspending a small portion of a bacterial colony in sterile phosphate-buffered saline (pH 7.2–7.3). The cell density was adjusted to 0.5 McFarland units using a densitometer (Densi-La-Meter, LIAP, Riga, Latvia). This inoculum was diluted to reach the final concentration of bacterial cells 5 × 10^5 CFU/mL in the wells. […] The final concentrations of the evaluated compounds ranged from 256 to 0.008 μg/mL. The broth dilution micro-method, modified according to the NCCLS (National Committee for Clinical Laboratory Standards) guidelines in Mueller–Hinton (MH) broth, was used to determine the minimum inhibitory concentration (MIC). Drug-free controls, sterility controls, and controls consisting of MH broth and DMSO alone were included. The determination of results was performed visually after 24 h of static incubation in the darkness at 37 °C in an aerobic atmosphere. Each experiment was repeated at least three times.

[5] = experimentally determined lipophilicity (logPTLC); type: physicochemical; conditions: thin-layer chromatography (TLC)
Description: In order to examine the lipophilic profile of the investigated compounds, the empirically determined logPTLC parameters (see Table 1) were compared with the theoretically approximated lipophilicity coefficients (clogP) using an ensemble of in silico predictors, e.g., clogP, Molinspiration, Osiris, HyperChem 7.0, Sybyl-X, MarvinSketch 15, ACD/ChemSketch 2015, Dragon 6.0, Kowwin, XlogP3, ChemDraw and ACD/Percepta programs. Subsequently, the deduced clogP parameters were cross-compared with the experimental logPTLC and inter-correlated with each other as presented in Figure 5. A good correlation was obtained (r = 0.94) for the MarvinSketch-made clogP values and the empirical logPTLC was recorded, respectively. […] A quite high inter-correlation was observed among the programs for lipophilicity specification. Obviously, some variations in clogP values resulted from different in silico algorithms (atom/fragment- or descriptor-based) implemented in the programs and/or training data employed in the training step [33].

[6] = tested on: methicillin-resistant S. aureus SA 630; assay: broth dilution micro-method MIC, MRSA SA 630; type: cell-based; conditions: Staphylococcus aureus, clinical isolate, 24 h, 37 °C
Protocol: as §3

[7] = tested on: Staphylococcus aureus ATCC 29213; assay: broth dilution micro-method MIC, S. aureus ATCC 29213; type: cell-based; conditions: ATCC29213, 24 h, 37 °C
Protocol: as §3

[8] = tested on: methicillin-resistant S. aureus SA 3202; assay: broth dilution micro-method MIC, MRSA SA 3202; type: cell-based; conditions: Staphylococcus aureus, clinical isolate, 24 h, 37 °C
Protocol: as §3

[9] = tested on: NHDF (normal human dermal fibroblasts); assay: WST-1 cell proliferation assay, NHDF normal cells; type: cell-based; conditions: normal cell line, 72 h exposure, mean ± std
Protocol: as §1, §2

MRSA isolates = assay: broth dilution micro-method MIC, MRSA isolates (pooled statement); type: cell-based; conditions: Staphylococcus aureus; range over three MRSA isolates and both compounds; read-out: MICs against MRSA isolates
Protocol: as §3, with “The determination of results was performed visually after 24 h of static incubation in the darkness at 37 °C in an aerobic atmosphere. Each experiment was repeated at least three times.” left out

[10] = Homo sapiens, SNB-19, 72 h exposure
[11] = Homo sapiens, A549, 72 h exposure

Compound | IC50 [1, 10] [µM] | IC50 ([2]; Homo sapiens, T47D) [µM] | IC50 [3, 11] [µM] | MIC [4] [µM] | chromatographic logP [5] | MIC [6] [µM] | MIC [7] [µM] | MIC [8] [µM] | IC50 ([9]; Homo sapiens, NHDF) [µM] | MIC (MRSA isolates) [µM] | IC50 ([1]; 72 h exposure) [µM] | IC50 [2] [µM] | IC50 ([3]; 72 h exposure) [µM] | IC50 [9] [µM]
Cc1cc(Cl)nc2c1Nc1c(c[n+](C)c3ccccc13)S2 [3g, 9-chloro-5,11-dimethyl-12H-quino[3,4-b]pyrido[5,6-e][1,4]thiazinium chloride] | 3.5 ± 0.2 | 26.7 ± 1.6 | 20 ± 1.6 | > 731 | 5.66 | > 731 | > 731 | > 731 | 3.8 ± 0.3 | – | – | – | – | –
C[n+]1cc2c(c3ccccc31)Nc1ccc(I)nc1S2 [3f, 9-iodo-5-methyl-12H-quino[3,4-b]pyrido[5,6-e][1,4]thiazinium chloride] | 62.5 ± 6.6 | 128 ± 18.2 | 115 ± 10.7 | 299 | 5.09 | 299 | 299 | 299 | 97.4 ± 6.2 | – | – | – | – | –
C[n+]1cc2c(c3ccccc31)Nc1cccnc1S2 [3a, 5-methyl-12H-quino[3,4-b]pyrido[5,6-e][1,4]thiazinium chloride] | 132 ± 11.6 | 46.2 ± 7.1 | 70.3 ± 9.8 | 212 | 3.53 | 106 | 212 | 212 | 21.1 ± 1.5 | – | – | – | – | –
Cc1cc(F)nc2c1Nc1c(c[n+](C)c3ccccc13)S2 [3h, 9-fluoro-5,11-dimethyl-12H-quino[3,4-b]pyrido[5,6-e][1,4]thiazinium chloride] | 126 ± 14.8 | 47.7 ± 2.8 | 15.4 ± 1 | 383 | 5.72 | 383 | 383 | 383 | 28.5 ± 4 | – | – | – | – | –
C[n+]1cc2c(c3ccccc31)Nc1cc(Br)cnc1S2 [3c, 10-bromo-5-methyl-12H-quino[3,4-b]pyrido[5,6-e][1,4]thiazinium chloride] | 3.4 ± 0.2 | 12.2 ± 1.7 | 20.6 ± 1.2 | 42.1 | 4.57 | 21.1 | 42.1 | 42.1 | 11 ± 1.4 | 12.5 to 42.1 | – | – | – | –
Cc1ccnc2c1Nc1c(c[n+](C)c3ccccc13)S2 [3i, 5,11-dimethyl-12H-quino[3,4-b]pyrido[5,6-e][1,4]thiazinium chloride] | 22.1 ± 1.5 | 18.9 ± 1.4 | 69.3 ± 5.3 | 203 | 4.17 | 101 | 203 | 203 | 0.4 ± 0.07 | – | – | – | – | –
C[n+]1cc2c(c3ccccc31)Nc1cnccc1S2 [4a, 5-methyl-5H-qujino[3,4-b]pyrido[3,4-e][1,4]thiazinium chloride] | 18.7 ± 1.2 | 36.8 ± 2.1 | 30.1 ± 3.4 | 424 | 2.93 | 424 | 424 | 424 | 7.5 ± 0.2 | – | – | – | – | –
C[n+]1cc2c(c3ccccc31)Nc1ccc(F)nc1S2 [3e, 9-fluoro-5-methyl-12H-quino[3,4-b]pyrido[5,6-e][1,4]thiazinium chloride] | 0.4 ± 0.08 | 2.8 ± 0.35 | 2.1 ± 0.35 | 25.1 | 4.24 | 12.5 | 50.2 | 25.1 | 1.1 ± 0.14 | 12.5 to 42.1 | – | – | – | –
COc1ccc2c(n1)Sc1c[n+](C)c3ccccc3c1N2 [3j, 9-methoxy-5-methyl-12H-quino[3,4-b]pyrido[5,6-e][1,4]thiazinium chloride] | 6.1 ± 0.4 | 8.1 ± 1 | 1.7 ± 0.1 | 193 | 4.2 | 96 | 193 | 193 | 2 ± 0.3 | – | – | – | – | –
C[n+]1cc2c(c3ccccc31)Nc1ccc(Br)nc1S2 [3b, 9-bromo-5-methyl-12H-quino[3,4-b]pyrido[5,6-e][1,4]thiazinium chloride] | 4.1 ± 0.3 | 5.2 ± 0.4 | 23.8 ± 1.7 | 337 | 4.8 | 337 | 337 | 337 | 0.8 ± 0.05 | – | – | – | – | –
N.N.[Cl][Pt][Cl] [cisplatinum, reference compound] | – | – | – | – | – | – | – | – | – | – | 16.7 ± 1.3 | 9 ± 0.7 | 3 ± 0.2 | 29.9 ± 3.3
C[n+]1cc2c(c3ccccc31)Nc1ccc(Cl)nc1S2 [3d, 9-chloro-5-methyl-12H-quino[3,4-b]pyrido[5,6-e][1,4]thiazinium chloride] | 1.3 ± 0.1 | 2.3 ± 0.3 | 2 ± 0.3 | 381 | 4.62 | 381 | 381 | 381 | 7.7 ± 0.5 | – | – | – | – | –
CC1(C)S[C@@H]2[C@H](NC(=O)[C@H](N)c3ccccc3)C(=O)N2[C@H]1C(=O)O [AMP, Ampicillin, reference compound] | – | – | – | 45.8 (≈ 16 µg/mL) | – | 45.8 (≈ 16 µg/mL) | 5.72 (≈ 2 µg/mL) | 45.8 (≈ 16 µg/mL) | – | – | – | – | – | –
